Experimental data: publication PMC7946667 (Cancer Chemotherapy and Pharmacology, 2021)
Like-named read-outs stand apart in the source and are kept apart here.

What was measured:
[1] = system: CYP3A; experiment: Clinical DDI study: pharmacokinetics of midazolam (CYP3A probe substrate) and 1′-hydroxymidazolam with and without ceritinib; type: in vivo, human; settings: based on midazolam AUC increase, ceritinib 750 mg QD
Source text: This was a multicenter, open-label, single sequence, crossover phase I study (ClinicalTrials.gov identifier: NCT02422589) and was divided into two phases, DDI phase and post-DDI treatment phase (Fig. 1). Patients were recruited from 10 clinical centers located across 4 countries, namely Spain (n = 3), United States (n = 3), Italy (n = 3), and Denmark (n = 1).
To assess the pharmacokinetics of probe substrates, blood samples were obtained on Days 1 and 28 at pre-dose and at 0.25, 0.5, 1, 2, 3, 4, 6, 8, 10, 24, 48, 72, 96, 120, and 144 h post-dose. […] A blood sample for CYP2C9 genotyping was collected on Day 1 of the DDI phase from all participating patients. Patients were categorized as CYP2C9 poor, intermediate, or extensive metabolizers based on the genotype testing results. This assessment was of exploratory nature and was not used as inclusion/exclusion criteria in the study.
A linear mixed-effects model was fitted to the log-transformed primary PK parameters (Cmax, AUC0-144 h, and AUC0-inf) and included a fixed effect for treatment and a random effect for subject.

[2] = Safety and tolerability (adverse events) of ceritinib 750 mg QD in patients
Description: (§1) Adverse events (AEs) were coded using the Medical Dictionary for Regulatory Activities version 20.1 and were graded using Common Terminology Criteria for Adverse Events version 4.03. All patients were followed up for AEs and serious AEs (SAEs) for at least 30 days following the last dose of study treatment at the end of treatment phase. Tumor evaluation was performed at screening visit within 28 days prior to study treatment (Day 1 of DDI phase) using contrast enhanced computed tomography (or magnetic resonance imaging). Assessments of tumor response were performed every two cycles (i.e., every 6 weeks) through Cycle 9. ORR and DOR by investigator assessment was reported per Response Evaluation Criteria in Solid Tumors (RECIST) 1.1.

[3] = system: advanced ALK-positive tumors; experiment: Antitumor activity (best overall response, ORR, DCR per RECIST 1.1, investigator assessment); type: in vivo, human
Description: as §1

[4] = system: CYP2C9; settings: based on S-warfarin AUC increase, ceritinib 750 mg QD
[5] = system: CYP3A4/5; settings: cited from earlier work
[6] = system: CYP2C9; settings: cited from earlier work
[7] = system: CYP1A2; settings: cited from earlier work
[8] = system: CYP2D6; settings: cited from earlier work
[9] = system: CYP2B6; settings: cited from earlier work
[10] = system: CYP2C8; settings: cited from earlier work
[11] = system: CYP2C19; settings: cited from earlier work
[12] = system: CYP2A6; settings: HLM, of more minor clinical relevance; cited from earlier work
[13] = system: CYP3A; settings: in vitro HLM studies; cited from earlier work
[14] = cited from earlier work
[15] = All Patients N=33, ceritinib 750 mg QD
[16] = NSCLC N=19, ceritinib 750 mg QD
[17] = Other tumors N=14, ceritinib 750 mg QD
[18] = HLM, read-out: IC50, reversible inhibition
[19] = HLM, read-out: Ki, reversible inhibition
[20] = ceritinib concentrations up to 50 µM
[21] = HLM, of more minor clinical relevance

Cc1cc(Nc2ncc(Cl)c(Nc3ccccc3S(=O)(=O)C(C)C)n2)c(OC(C)C)cc1C1CCNCC1 [ceritinib]
classification as CYP3A inhibitor [1]: strong inhibitor of CYP3A
classification as CYP3A inhibitor ([1]; listed as Ceritinib): strong CYP3A inhibitor
deaths suspected to be treatment related ([2]; all patients N=33): None
patients who died during the study ([2]; all patients N=33, cause study disease): 8 patients
deaths during the on-treatment period ([2]; within 30 days of last dose of ceritinib): 4 deaths
ORR ([3]; 19 patients with NSCLC, 95% CI: 20.3, 66.5): 42.1%
DCR ([3]; 19 patients with NSCLC, 95% CI: 38.4, 83.7): 63.2%
Best overall response Unknown [3, 15]: 6 (18.2) n (%)
Complete response (CR) [3, 15]: 1 (3.0) n (%)
Non-CR/Non-PD [3, 15]: 2 (6.1) n (%)
Partial response (PR) [3, 15]: 8 (24.2) n (%)
Progressive disease (PD) [3, 15]: 12 (36.4) n (%)
Best overall response Unknown [3, 16]: 4 (21.1) n (%)
Complete response (CR) [3, 16]: 1 (5.3) n (%)
Non-CR/Non-PD [3, 16]: 2 (10.5) n (%)
Partial response (PR) [3, 16]: 7 (36.8) n (%)
Progressive disease (PD) [3, 16]: 3 (15.8) n (%)
Best overall response Unknown [3, 17]: 2 (14.3) n (%)
Complete response (CR) [3, 17]: 0 n (%)
Non-CR/Non-PD [3, 17]: 0 n (%)
Partial response (PR) [3, 17]: 1 (7.1) n (%)
Progressive disease (PD) [3, 17]: 9 (64.3) n (%)
ORR ([3]; overall, all 33 patients, 95% CI: 13.3, 45.5): 27.3%
DCR ([3]; overall, all 33 patients, 95% CI: 28.1, 63.6): 45.5%
classification as CYP2C9 inhibitor [4]: weak inhibitor of CYP2C9
classification as CYP2C9 inhibitor ([4]; listed as Ceritinib): weak CYP2C9 inhibitor
IC50 [5, 18]: 200 nM
Ki [5, 19]: 160 nM
mode of inhibition of metabolism of midazolam (CYP3A substrate) ([5]; pooled HLMs): competitively inhibited
inhibitor concentration associated with 50% maximal inactivation rate [Ki] ([5]; time-dependent inhibition of CYP3A, HLM): 1470 nM
IC50 [6, 18]: 2000 nM
Ki [6, 19]: 240 nM
time-dependent inhibition [6, 20]: no apparent time-dependent inhibition
mode of inhibition of metabolism of diclofenac (CYP2C9 substrate) ([6]; pooled HLMs): competitively inhibited
time-dependent inhibition [7, 20]: no apparent time-dependent inhibition
inhibition at clinically relevant concentrations [7]: unlikely to inhibit
reversible inhibition [8, 21]: reversibly inhibits
time-dependent inhibition [8, 20]: no apparent time-dependent inhibition
inhibition at clinically relevant concentrations [8]: unlikely to inhibit
reversible inhibition [9, 21]: reversibly inhibits
inhibition at clinically relevant concentrations [9]: unlikely to inhibit
inhibition at clinically relevant concentrations [10]: unlikely to inhibit
inhibition at clinically relevant concentrations [11]: unlikely to inhibit
reversible inhibition [12]: reversibly inhibits
share of hepatic oxidative metabolism via CYP3A [13]: > 90%
Cmax at steady-state ([14]; observed in earlier clinical trials): 1010 ng/mL
Cmax ([14]; observed in earlier clinical trials, read-out: Cmax at steady-state): 1800 nM
time to steady-state ([14]; repeat daily dosing): 2–3 weeks
